Literature values, collected in US5763435A, “Sulfate conjugates of ursodeoxycholic acid, and their beneficial use in inflammatory disorders” (priority 1995, dated 1998).

Tests used:
colonic epithelial cell = settings: in vitro; cited from earlier work
[1] = rat, in vivo; cited from earlier work

| Structure (SMILES) | Effect on colonic epithelial cell proliferation (in words) (colonic epithelial cell) | Metabolism to 3α,7α-disulfate, 6β-hydroxy 5β-cholanoic acid [1] [%] |
| --- | --- | --- |
| C[C@H](CCC(=O)O)[C@H]1CC[C@H]2[C@@H]3CC[C@@H]4C[C@H](O)CC[C@]4(C)[C@H]3C[C@H](O)[C@]12C [deoxycholic, deoxycholic acid] | comitogenic | – |
| C[C@H](CCC(=O)NCC(=O)O)[C@H]1CC[C@H]2[C@@H]3[C@H](OS(=O)(=O)O)C[C@@H]4C[C@H](OS(=O)(=O)O)CC[C@]4(C)[C@H]3CC[C@]12C [glycochenodeoxycholic acid disulfates] | – | 90 |
| C[C@H](CCC(=O)O)[C@H]1CC[C@H]2[C@@H]3CC[C@@H]4C[C@H](O)CC[C@]4(C)[C@H]3CC[C@]12C [lithocholic acids, lithocholic acid] | comitogenic | – |
| C[C@H](CCC(=O)NCCS(=O)(=O)O)[C@H]1CC[C@H]2[C@@H]3[C@H](OS(=O)(=O)O)C[C@@H]4C[C@H](OS(=O)(=O)O)CC[C@]4(C)[C@H]3CC[C@]12C [taurochenodeoxycholic acid disulfates] | – | 90 |
